Laboratory results as given in the NIST ThermoML archive (doi:10.1021/je0504459).
± gives the expanded uncertainty stated by the source.

What was measured:
[1] = 101 kPa, Liquid; for speed of sound: Sing-around technique in a fixed-path interferometer
[2] = xn = mol fraction of the nth substance listed; conditions: 101 kPa, Liquid, x2 = 0; for speed of sound: Sing-around technique in a fixed-path interferometer

Row | Compound | kinematic viscosity ([1]; 303.15 K) [m2/s] | mass density ([1]; 303.15 K) [kg/m3] | speed of sound ([1]; 303.15 K) [m/s] | kinematic viscosity ([1]; 313.15 K) [m2/s] | mass density ([1]; 313.15 K) [kg/m3] | speed of sound ([1]; 313.15 K) [m/s] | speed of sound ([2]; 303.15 K) [m/s] | kinematic viscosity ([2]; 303.15 K) [m2/s] | mass density ([2]; 303.15 K) [kg/m3] | speed of sound ([2]; 313.15 K) [m/s] | kinematic viscosity ([2]; 313.15 K) [m2/s] | mass density ([2]; 313.15 K) [kg/m3]
1 | CCCCCCCO [heptan-1-ol] | 6.19e-06 ± 7.1e-08 | 814.94 ± 0.57 | 1312 ± 3 | 4.59e-06 ± 5.5e-08 | 807.77 ± 0.6 | 1278 ± 3 |  |  |  |  |  | 
2 | CCCCCCCO [heptan-1-ol] + ClC(Cl)Cl |  |  |  |  |  |  | 1312 ± 3 | 6.19e-06 ± 7.1e-08 | 814.94 ± 0.57 | 1278 ± 3 | 4.59e-06 ± 5.5e-08 | 807.77 ± 0.6
3 | CCCCCCO [hexan-1-ol] | 4.68e-06 ± 5.6e-08 | 811.65 ± 0.57 | 1289 ± 3 | 3.63e-06 ± 4.4e-08 | 804.24 ± 0.6 | 1256 ± 3 |  |  |  |  |  | 
4 | CCCCCCO [hexan-1-ol] + ClC(Cl)Cl |  |  |  |  |  |  | 1289 ± 3 | 4.68e-06 ± 5.6e-08 | 811.65 ± 0.57 | 1256 ± 3 | 3.63e-06 ± 4.4e-08 | 804.24 ± 0.6
5 | CCCCCO [pentan-1-ol] | 3.73e-06 ± 4.2e-08 | 808.6 ± 0.44 | 1264 ± 3 | 2.89e-06 ± 3.3e-08 | 800.99 ± 0.48 | 1228 ± 3 |  |  |  |  |  | 
6 | CCCCCO [pentan-1-ol] + ClC(Cl)Cl |  |  |  |  |  |  | 1264 ± 3 | 3.73e-06 ± 4.2e-08 | 808.6 ± 0.44 | 1228 ± 3 | 2.89e-06 ± 3.3e-08 | 800.99 ± 0.48
7 | ClC(Cl)Cl [trichloromethane] | 3.63e-07 ± 8e-09 | 1469.21 ± 1.1 | 969 ± 2 | 3.39e-07 ± 8e-09 | 1449.74 ± 1.1 | 934 ± 2 |  |  |  |  |  | 
